We go through 3 compounds from patent publication US10799521B2, “Use of icaritin in preparing medicament for preventing or treating hematocytopenia” (Lunan Pharmaceutical Group Corporation, priority 2013, dated 2020).

Marks after values point to notes of the source that are not given here.

Data set [1] has as its system tumor-bearing mice (mice ascites tumor s180 cells). The experiment in a line: Effect on chemotherapy-induced bone marrow suppression in tumor-bearing mice (routine blood test). Conditions: after 10 days once daily, docetaxel 75 mg/m^2/d iv, Tegafur/Gimeracil/Oteracil capsules 222.2 mg/m^2/d intragastric, icaritin 10 mg/kg/d iv. It is filed as in vivo, Kunming mice. How it is done: Mice ascites tumor s180 cells were conventionally incubated in 1640 culture medium, at 37° C., 5% CO2, and passaged once every two days in average. The cells in the logarithmic growth phase were prepared into a single-cell suspension having a density of 3.0×10^7 cells/ml with normal saline, which was injected into the abdominal cavities of mice under sterile conditions. Seven days after inoculation, significant swelling of the abdominal cavities of mice can be seen. As this time, the mice were executed by cervical vertebra luxation, put into a beaker containing 75% ethanol and soaked for 2-3 minutes. The sterilized mice were placed into an ultraclean bench, and the abdomens were exposed. The ascites was drawn with a sterile syringe and put into a sterile reagent bottle for further use. The above ascites was counted with trypan blue, diluted with normal saline to adjust to 2.0×10^7 cells/ml, and inoculated at the right armpit of the mice with 0.2 ml for each mouse. The inoculated mice were randomly divided into 6 groups, with 10 animals in each group and half male and half female. Group 1, the model control group: the test animals were intraperitoneally injected with0.9% normal saline (same for the following experiments); Group 2, the docetaxel group: 75 mg/m^2/d of docetaxel; Group 3, the Tegafur, Gimeracil and Oteracil Potassium Capsules group: 222.2 mg/m^2/d of Tegafur, Gimeracil and Oteracil Potassium Capsules; Group 4, the icaritin group: 10 mg/kg/d of the icaritin microemulsion formulation; Group 5, the D+I group (docetaxel+icaritin group): 75 mg/m^2/d of docetaxel+[…] of icaritin; Group 6, the T +I group (Tegafur, Gimeracil and Oteracil Potassium Capsules+icaritin group): 222.2 mg/m^2/d of Tegafur, Gimeracil and Oteracil Potassium Capsules+10 mg/kg/d of icaritin. Docetaxel and icaritin were administered by tail intravenous injection with an administration volume of 10 ml/kg for each. Tegafur, Gimeracil and Oteracil Potassium Capsules was intragastrically administered with an administration volume of 40 ml/kg. Each group was administered once a day for totally 10 days. During the test, the animals were observed every day for their food and water uptake, survival conditions and behaviors, and measured for their body weights every day. After the test was ended, the mice were anaesthetized and anatomized. Blood was collected from abdominal aorta for routine blood test, and the total number of white blood cells, the total number of platelets and the total number of neutrophils were determined.

Details of data set [2]: species or system Kunming mice. Particulars: mouse, in vivo. As for the experimental part: Mice ascites tumor s180 cells were conventionally incubated in 1640 culture medium, at 37° C., 5% CO2, and passaged once every two days in average. The cells in the logarithmic growth phase were prepared into a single-cell suspension having a density of 3.0×10^7 cells/ml with normal saline, which was injected into the abdominal cavities of mice under sterile conditions. Seven days after inoculation, significant swelling of the abdominal cavities of mice can be seen. As this time, the mice were executed by cervical vertebra luxation, put into a beaker containing 75% ethanol and soaked for 2-3 minutes. The sterilized mice were placed into an ultraclean bench, and the abdomens were exposed. The ascites was drawn with a sterile syringe and put into a sterile reagent bottle for further use. The above ascites was counted with trypan blue, diluted with normal saline to adjust to 2.0×10^7 cells/ml, and inoculated at the right armpit of the mice with 0.2 ml for each mouse.
The inoculated mice were randomly divided into 6 groups, with 10 animals in each group and half male and half female.
Docetaxel and icaritin were administered by tail intravenous injection with an administration volume of 10 ml/kg for each. Tegafur, Gimeracil and Oteracil Potassium Capsules was intragastrically administered with an administration volume of 40 ml/kg. Each group was administered once a day for totally 10 days. During the test, the animals were observed every day for their food and water uptake, survival conditions and behaviors, and measured for their body weights every day. After the test was ended, the mice were anaesthetized and anatomized. Blood was collected from abdominal aorta for routine blood test, and the total number of white blood cells, the total number of platelets and the total number of neutrophils were determined.

In data set [3] the test system is normal mice. The data set is described as follows: Bleeding time in normal mice (tail tip cut). It is filed as in vivo, Kunming mice. More on the design: unit not given here. Particulars: 2 mg/kg by injection, 3 days, 1 h after last administration. As for the experimental part:
100 Kunming mice were randomly divided into 5 groups, i.e. the blank control group (normal saline group), the icariin group (positive control group), the high-dose icaritin group, the medium-dose icaritin group, and the low-dose icaritin group. Each group was administered as follows. Blank control group: administered with the same volume of normal saline by subcutaneous injection; Icariin group: administered with 2 mg/kg of icariin by injection; High-dose icaritin group: administered with the injection of icaritin of Example 1 by subcutaneous injection at a dosage of 10 mg/kg; Medium-dose icaritin group: administered with the injection of icaritin of Example 1 by subcutaneous injection at a dosage of 5 mg/kg; Low-dose icaritin group: administered with the injection of icaritin of Example 1 by subcutaneous injection at a dosage of 1 mg/kg. Measurement of the bleeding time: The normal saline group (blank control group), the icariin group (positive control group), and the icaritin administration groups (high-, medium-, and low-dose groups) were designed as follows: 50 mice were selected, weighed, and randomly divided into 5 groups, with 10 mice in each group. The animals were administered consecutively for 3 days. At 1 h after the last administration, a filter paper was rolled to form a filter paper cartridge with a diameter similar to that of the mouse body, which was closed at one end. The mouse was allowed to climb into the cartridge. Then about 3 mm of tail tip of the mouse was cut with scissors. A stopwatch was started to record the time when the bleeding started. The tail tip of the mouse was point-contacted with a filter paper gently every 15 s until there was no blood or no blood can be seen.

The test system of data set [4] is normal mice. The data set is described as follows: Clotting time in normal mice (capillary method). Conditions: 2 mg/kg by injection, 3 days, 1 h after last administration. It is filed as in vivo, Kunming mice. More on the design: unit not given here. How it is done: 100 Kunming mice were randomly divided into 5 groups, i.e. the blank control group (normal saline group), the icariin group (positive control group), the high-dose icaritin group, the medium-dose icaritin group, and the low-dose icaritin group. Each group was administered as follows.
Blank control group: administered with the same volume of normal saline by subcutaneous injection;
Icariin group: administered with 2 mg/kg of icariin by injection;
High-dose icaritin group: administered with the injection of icaritin of Example 1 by subcutaneous injection at a dosage of 10 mg/kg;
Medium-dose icaritin group: administered with the injection of icaritin of Example 1 by subcutaneous injection at a dosage of 5 mg/kg;
Low-dose icaritin group: administered with the injection of icaritin of Example 1 by subcutaneous injection at a dosage of 1 mg/kg.
Measurement of the clotting time: The normal saline group (blank control group), the icariin group (positive control group), and the icaritin administration groups (high-, medium-, and low-dose groups) were designed as follows: 50 mice were selected, weighed and randomly divided into 5 groups, with 10 mice in each group. The animals were administered consecutively for 3 days. At 1 h after the last administration, blood was sampled from the venous plexus by inserting a disposable 20 μl blood collection tube into the inner canthus of the mouse to collect 20 μl of blood. A small fragment of capillary was broken off every 15 s for checking the occurrence of clotting filaments. The time from the blood sampling to the occurrence of fibrous protein filaments (clotting time) was recorded, and the results were shown in Table 5.

The test system of a further data set is chronic ITP model rats. The data set is described as follows: Platelet count in chronic ITP model rats (anti-rat platelet serum). It is filed as in vivo, Wistar rats. Particulars: 2 mg/kg sc, 1 h after last administration. As for the experimental part: Establishment of chronic ITP model: Wistar rats were selected to establish the model by injecting rabbit anti-rat platelet serum (APS). […] 50 Rats in which the model was successfully established were selected, weighed, and randomly divided into 5 groups, i.e. the model control group, the icariin group (positive control group), and the icaritin administration groups (high-, medium- and low-dose groups), with 10 rats in each group. The groups were administered with the following therapeutic agents, respectively.
The model control group: administered by subcutaneous injection with the same volume of normal saline;
(§1) The icariin group: administered by subcutaneous injection with 2 mg/kg of icariin;
(§2) The high-dose icaritin group: administered by subcutaneous injection with 10 mg/kg of the icaritin injection of Example 11;
(§3) The medium-dose icaritin group: administered by subcutaneous injection with 5 mg/kg of the icaritin injection of Example 11;
(§4) The low-dose icaritin group: administered by subcutaneous injection with 1 mg/kg of the icaritin injection of Example 11.
At 1 h after the last administration, blood was sampled from the venous plexus by inserting a disposable 20 μl blood collection tube into the inner canthus of the […].

Data set [5] concerns active immune thrombocytopenia mice. The data set is described as follows: Active immune thrombocytopenia in mice (platelets in peripheral blood). Format: in vivo, Balb/C mice. Conditions: 2 mg/kg (table), intragastric once a day, x ± s. How it is done:
72 Balb/C mice were selected, weighed, and randomly divided into […] administration groups, i.e. the normal group, the model control group, the icariin group (positive control group), and the icaritin administration groups (high-, medium-, and low-dose groups), with 12 mice in each group. […] On the second day after the model was established, each group was administered with the following therapeutic agents: The normal group: administered intragastrically with the same volume of normal saline; The model control group: administered intragastrically with the same volume of normal saline; The […]: […]; The high-dose icaritin group: […] Example 9; The medium-dose icaritin group: […] Example 9; The low-dose icaritin group: […] Each of the administration groups was administered once a day and fed normally. After establishing the model three times, each administration group was continued to be administered for one week. The mice were anesthetized, and blood was sampled to measure the number of platelets and determine the effect of icaritin on the number of platelets (PLT) in the peripheral blood.

In data set [6] the test system is model of thrombocytopenia induced by cyclophosphamide in mice. The data set is described as follows: Thrombocytopenia induced by cyclophosphamide in mice (platelets in peripheral blood). Format: in vivo, Balb/C mice. Particulars: cyclophosphamide 50 mg/kg ip model mice; 2 mg/kg sc once a day, 3 weeks; x ± s. How it is done: 72 Balb/C mice were selected, weighed, and randomly divided into 6 groups, i.e. the normal group, the model control group, the icariin group (positive control group), and the icaritin administration groups (high-, medium-, and low-dose groups), with 12 mice in each group. […] One week before starting to establish the model, each group was administered with the following therapeutic agents:
The normal group: administered subcutaneously with the same volume of normal saline;
The model control group: administered subcutaneously with the same volume of normal saline;
as §1, §2, §3, §4
Each group was administered once a day and fed normally. After consecutive administration for 3 weeks, the mice were anesthetized, and blood was sampled to measure the number of platelets and determine the effect of icaritin on the number of platelets (PLT) in the peripheral blood.

For the compound `CC(=O)O[C@@]12CO[C@@H]1C[C@H](O)[C@@]1(C)C(=O)[C@H](O)C3=C(C)[C@@H](OC(=O)[C@H](O)[C@@H](NC(=O)OC(C)(C)C)c4ccccc4)C[C@@](O)([C@@H](OC(=O)c4ccccc4)[C@H]21)C3(C)C` [Docetaxel, reference compound], in data set [1], the Neutrophils was 0.670 ± 0.12 10^9/L, the Platelets was 450.6 ± 30.5 10^9/L and the White blood cells is recorded as 2.773 ± 0.46 10^9/L. In addition, the “Body weight Before Administration” value in data set [2] stood at 21.2 ± 1.8 g.
As to `COc1ccc(-c2oc3c(CC=C(C)C)c(O[C@@H]4O[C@H](CO)[C@@H](O)[C@H](O)[C@H]4O)cc(O)c3c(=O)c2O[C@@H]2O[C@@H](C)[C@H](O)[C@@H](O)[C@H]2O)cc1` [Icariin, reference compound], the “Bleeding Time” value in the data set with normal mice [3] stood at 4.03 ± 0.45. Moreover, the “Clotting Time” value in the data set on normal mice [4] stood at 4.28 ± 0.61. The Platelet count in the data set with chronic ITP model rats is given as 571.8 ± 60.6 ×10^9. For the same compound, the PLT in data set [5] was 850.6 ± 90.1** 10^9/L; in data set [6], 550.6 ± 90.1** 10^9/L.
For the compound “Tegafur, Gimeracil and Oteracil Potassium Capsules”, in data set [2], the “Body weight Before Administration” value came to 21.3 ± 2.3 g.
